In PMC7910394, “Design of PSMA ligands with modifications at the inhibitor part: an approach to reduce the salivary gland uptake of radiolabeled PSMA inhibitors?” (EJNMMI Radiopharmacy and Chemistry, 2021):

Experiment: Lipophilicity (log D), shake-flask method
Type: physicochemical
Settings: from log D values
Procedure: The log D values were determined, using the shake-flask method as previously described (Wurzer et al. [2020]). The radiolabeled tracer (0.5–1 MBq, 20 μL) was dissolved in 1 mL of a 1/1 mixture (v/v) of PBS (pH 7.4) and n-octanol in a reaction vial (n = 6). After vigorous mixing of the suspension for 3 min at r.t., the vial was centrifuged at 9000 rpm (ca. 7700×g) for 5 min at room temperature (Heraeus Biofuge 15, Thermo Fisher Scientific, Darmstadt, Germany) and 150 μL aliquots of both layers were measured in a ɣ-counter.

SMILES: CC(C)(C)[Si](F)(c1ccc(C(=O)NC[C@@H](NC(=O)CN2CCN(CC(=O)[O-])CCN(CC(=O)[O-])CCN(CC(=O)[O-])CC2)C(=O)N[C@H](CCCCNC(=O)CCC(=O)NCCC[C@@H](NC(=O)CC[C@H](NC(=O)N[C@@H](CCc2nnn[nH]2)C(=O)O)C(=O)O)C(=O)O)C(=O)O)cc1)C(C)(C)C.[Lu+3] [^natLu/[^177Lu]Lu-11]
- increase of lipophilicity compared to [177Lu]Lu-1: ~ 7.4 fold
